{"source": "patent US8892197B2", "about": "“Method and apparatus to control conduction through the heart to treat cardiac conditions” (Medtronic, Inc., priority 2005, dated 2014)", "key": {"AVN conduction": {"system": "AVN conduction", "assay": "AV block duration after ACH bolus, direct AVN injection vs. intravenous, anesthetized canines", "assay_type": "in vivo", "excerpt": "(§1) This study evaluated the effect of locally administered acetylcholine (ACH) on AVN conduction and refractoriness properties during sinus rhythm and AF. Canines (n=7) were anesthetized, and instrumented to assess atrial and ventricular electrophysiology as well as arterial blood pressure. A custom drug delivery catheter was fixed into the AVN region using a combination of standard electrophysiological mapping techniques and image guided therapy via a cardiac navigation system."}, "[1]": {"system": "AVN conduction and refractoriness", "assay": "Incremental ACH infusion into the AVN: ventricular rate during electrically induced AF, AVN refractoriness, intervals, blood pressure", "assay_type": "in vivo, Canines", "conditions": "for Ventricular rate during electrically induced AF: infusion into AVN, decreased from 182±32", "excerpt": "as §1\nSubsequently, incremental doses of ACH starting at 10 ug/min were infused into the AVN until complete atrioventricular heart block (AVB) was observed."}, "[2]": {"conditions": "Intravenous Bolus (n = 5), identical dose"}}, "data": [{"smiles": "CC(=O)OCC[N+](C)(C)C", "note": "[ACH, acetylcholine]", "values": [{"measurement": "AV Block III duration", "setting": "AVN conduction; Direct AVN Bolus (n = 6)", "result": "12.30 ± 4.72", "unit": "min"}, {"measurement": "Overall AV Block duration (AV block I, II and III)", "setting": "AVN conduction; Direct AVN Bolus (n = 6)", "result": "41.19 ± 27.14", "unit": "min"}, {"measurement": "AV Block III duration", "setting": "AVN conduction; [2]", "result": "0.00 ± 0.00", "unit": "min"}, {"measurement": "Overall AV Block duration (AV block I, II and III)", "setting": "AVN conduction; [2]", "result": "0.31 ± 0.43", "unit": "min"}, {"measurement": "PP intervals, HV intervals and blood pressure", "setting": "[1]; ACH dose producing first AVB", "result": "remained unchanged"}, {"measurement": "Time to full reversal of observed effects after stopping ACH infusion", "setting": "[1]; after stopping infusion into AVN", "result": "≤ 20", "unit": "min"}, {"measurement": "Ventricular rate during electrically induced AF", "setting": "[1]; dosage inducing first degree AVB, p<0.05", "result": "77±28", "unit": "bpm"}, {"measurement": "Ventricular rate during electrically induced AF", "setting": "[1]; dosage inducing third degree AVB, p<0.05", "result": "28±8", "unit": "bpm"}, {"measurement": "AVN effective refractory period (ERP)", "setting": "[1]; first degree AVB dose, pacing cycle length 400 msec, increased from 186±37, p=0.06", "result": "282 ± 33", "unit": "ms"}, {"measurement": "Wenckebach cycle length", "setting": "[1]; first degree AVB dose, increased from 271±29, p<0.05", "result": "378 ± 58", "unit": "ms"}]}]}
